Source: US20110160249A1, “5-LIPOXYGENASE-ACTIVATING PROTEIN INHIBITOR” (priority 2008, published 2011)
≈ marks a conversion by molar mass, not a printed value.

Experiments:
[1] = Gravimetric Vapour Sorption (GVS); type: physicochemical; conditions: after the full sorption/desorption cycle
[2] = Thermodynamic Aqueous Solubility by HPLC; type: physicochemical; conditions: water, 25° C.
Description: Aqueous solubility was determined by suspending sufficient compound in water to give a maximum final concentration of ≧10 mg·ml^−1 of the parent free-form of the compound. The suspension was equilibrated at 25° C. for 24 hours then the pH was measured. The suspension was then filtered through a glass fibre C filter into a 96 well plate. The filtrate was then diluted by a factor of 101. Quantitation was by HPLC with reference to a standard solution of approximately 0.1 mg·ml^−1 in DMSO. Different volumes of the standard, diluted and undiluted sample solutions were injected. The solubility was calculated using the peak areas determined by integration of the peak found at the same retention time as the principal peak in the standard injection.
Analysis was performed on an Agilent HP1100 series system equipped with a diode array detector and using ChemStation software vB.02.01-SR1.

[3] = rat, in vivo, po
[4] = tested on: allergen-induced early and late phases of lung-volume decline; conditions: clinical trials; cited from earlier work
[5] = Liquid formulations (oral solutions/suspensions); type: physicochemical; conditions: certain solvent systems, below pH values of about 9-10
Description: Values of pH reported were estimated based on pH indicating strips. […] Accordingly, provided in certain embodiments herein were formulations having a pH above about 9, above about 10 or of about 10. In certain embodiments, the formulation was buffered at a pH of about 10. All formulations prepared were sonicated for about 10 minutes.

[6] = tested on: whole blood ionophore-stimulated leukotriene LTB4; test: Phase I study, whole blood ionophore-stimulated LTB4; type: in vivo, human
Text: Study Design: Single center, double-blind, randomized, placebo-controlled, single ascending dose followed by multiple ascending dose study.
Sample Size: (1) Single Dose Phase: eight (8) subjects (6 active, 2 placebo) per dose level; up to 5 dose levels are planned (a total of 40 subjects if all 5 dose levels are completed); and (2) Multiple Dose Phase: eight (8) subjects (6 active, 2 placebo) per dose level; up to 4 dose levels are planned (a total of 32 subjects if all 4 dose levels are completed).
Formulations: Compound 2 was supplied as an oral powder for reconstitution. Placebo solution matched. […] The placebo differed only in the absence of the active.
The following dosing cohorts were used:
Routes of Administration: All doses were administered orally with approximately 100 mL of water rinse. Subjects were fasted for at least 8 hours prior to dosing and for 2 hours after dosing. For BID dosing in the Multiple Dose Phase, when applicable, subjects were fasted for at least 2 hours prior to the second daily dose.
Plasma concentrations of Compound 1 were determined using a validated LC/MS method. Whole blood ionophore-stimulated leukotriene LTB4 and urinary LTE4 production were assayed by ELISA and mass spectrometry, respectively.
Analysis of Samples: Concentrations of Compound 1 was determined in plasma samples collected from subjects. Similarly, concentrations of LTB4 in plasma and urinary LTE4 were determined in blood and urine samples collected.

[7] = tested on: chronic asthma; conditions: clinical studies; cited from earlier work

## CCOc1ccc(-c2ccc(Cn3c(CC(C)(C)C(=O)[O-])c(SC(C)(C)C)c4cc(OCc5ccc(C)cn5)ccc43)cc2)cn1.[Na+] [Amorphous Phase A]
[1]
  XRPD pattern after the GVS experiment: No changes were observed
[2]
  Appearance of mixture after equilibration for 24 hours: Suspension
[2]; 24 hours, listed as Compound 2 Phase A
  Concentration of filtrate (as mg/mL of free base): >10 mg/mL
[3]
  plasma exposures: equivalent plasma exposures

## O=C(O)[C@@H](c1ccc(OCc2ccc3ccccc3n2)cc1)C1CCCC1 [BAYX-1005]
[4]
  efficacy in allergen-challenge studies (allergen-induced early and late phases of lung-volume decline): show efficacy

## CCOc1ccc(-c2ccc(Cn3c(CC(C)(C)C(=O)O)c(SC(C)(C)C)c4cc(OCc5ccc(C)cn5)ccc43)cc2)cn1 [Compound 1, 3-[3-(tert-butylsulfanyl)-1-[4-(6-ethoxy-pyridin-3-yl)benzyl]-5-(5-methyl-pyridin-2-yl-methoxy)-1H-indol-2-yl]-2,2-dimethylpropanoic acid]
[5]
  solubility in words: sparingly soluble
[6]; Homo sapiens, dose range studied, read-out: EC50, plasma concentration vs inhibition of ionophore-stimulated LTB4 production
  EC50: ~0.07 µg/mL (≈ 0.11 µM)
[6]; Homo sapiens, dose range studied, read-out: EC90, plasma concentration vs inhibition of ionophore-stimulated LTB4 production
  EC90: ~0.32 µg/mL (≈ 0.502 µM)
[6]; in vivo
  plasma concentration at which complete inhibition of ionophore-stimulated LTB4 production was reached: 1000 to 1500 ng/mL

## CC(C)(C)Sc1c(CC(C)(C)C(=O)O)n(Cc2ccc(Cl)cc2)c2ccc(OCc3ccc4ccccc4n3)cc12 [MK-0591]
[7]
  efficacy in chronic asthma: shows efficacy
[4]
  efficacy in allergen-challenge studies (allergen-induced early and late phases of lung-volume decline): show efficacy

## CC(C)c1ccc2c(c1)c(SC(C)(C)C)c(CC(C)(C)C(=O)O)n2Cc1ccc(Cl)cc1 [MK-866]
[4]
  efficacy in allergen-challenge studies (allergen-induced early and late phases of lung-volume decline): show efficacy

## CC(c1cc2ccccc2s1)N(O)C(N)=O (centres unmarked) [Zileuton, zileuton]
[7]
  efficacy in chronic asthma: exhibits clinical efficacy
[4]
  efficacy in allergen-challenge studies (allergen-induced early and late phases of lung-volume decline): not effective
